# Experiments:
# [1] = tested on: PC12 cells; test: Western blot of LC3 II/LC3 I in the autophagy flow assay; assay type: cell-based; conditions: GENI group compared with the control group
# Procedure: Western blot analysis for p-AMPK α, AMPK α, p-mTOR, mTOR, p-ULK1, ULK1, and LC3-I/II was conducted according to the information described in the materials and methods section of Supplementary Information.
# 1.3. Western blot analysis.
# For PC12 cell samples, we seeded 2 × 10^6 PC12 cells in each 60 mm dish containing 5 mL of DMEM and incubated the dish for 24 h. For the dose-dependent experiment of GENI, GENI (1, 3 and 10 μM) was added to the dishes and incubated for a period of time (2 hours for p-AMPK α, AMPK α, 48 hours for p-mTOR, mTOR and p-ULK1, ULK1; 8 hours for LC3-I/II). Cells were then collected, lysed using RAPI lysis buffer and centrifuged. The supernatants of each group were used as protein samples. For the protein samples of autophagy flow assay, we seeded 2 × 10^6 PC12 cells in each 60 mm dish containing 5 mL of DMEM and incubated the dish for 24 h.
# The GENI, rapamycin and inhibitors, such as chloroquine and 3-MA were added according to the method of autophagy flow assay. After treatment of 18 h, cells were then collected, lysed using RAPI lysis buffer and centrifuged. […] The protein concentration was measured with a BCA assay kit (Beijing Cowin Biotech Company, Beijing, China). […] Bands were quantitatively measured using ImageJ software (National Institutes of Health, Bethesda, MD, USA).
# [2] = tested on: BV-2 cells; test: IL-6 ELISA and NO assay in BV-2 cell culture supernatant; assay type: cell-based, murine; conditions: LPS 1 μg/mL
# Procedure: ELISA analysis for NO and interleukin-6 (IL-6) was performed according to the manufacturer described in the material and methods section in Supplementary Information. […]
# for 15 seconds, 68 ℃ for 20 seconds. All results were normalized to GAPDH RNA levels, and relative mRNA transcript levels were calculated using the ΔΔCt formula.
# 1.2. Enzyme-linked immunosorbent assay
# BV-2 cells were treated with LPS (1 μg/mL) in the absence or presence of GENI (1, 3 and 10 μM). The cell supernatant was collected at different time points for proinflammatory mediator assay (8 h for IL-6 and 24 h for NO). NO production was quantified using an NO assay kit (S0021S, Beyotime, China), and IL-6 was detected using commercial ELISA kits (EM004, ExCell, China) according to the manufacturer’s instructions.
# For NO content evaluation, firstly, the NO assay kit was removed, and Griess Reagents I and II were warmed to room temperature. The standard substance was diluted with cell culture solution to 0, 1, 2, 5, 10, 20, 40, 60 and 100 μM. […] The absorbance was determined with a microplate reader (BioTek, California, USA) at 540 nm. […]
# 15.625 and 0 pg/mL for use, and blank holes were set. […] About 100 μL of termination solution was added to each hole, and we measured the OD450 value immediately after mixing with a microplate reader (BioTek, California, USA).
compound,measurement,setting,value
"CC(C)CCOC(=O)C1=CO[C@@H](O[C@@H]2O[C@H](CO)[C@@H](O)[C@H](O)[C@H]2O)C2C(CO)=CCC12 (stereo partly drawn) [GENI, Geniposidic 4-isoamyl ester]",LC3 II at the protein level,[1],significantly increased
same,secretion of LPS-stimulated pro-inflammatory IL-6,[2]; 8 h,significantly reduced
same,production of NO,[2]; 24 h,significantly reduced
